Experimental data from patent publication US20100173935A1, “Muscarinic Receptor Agonists that are Effective in the Treatment of Pain, Alzheimer's Disease and Schizophrenia” (AstraZeneca AB, priority 2006, published 2010).

Each molecule was assayed against T1, human M4 receptor (Homo sapiens, UniProt P08173) (assay: hM4 receptor GTPγS binding). Conditions: not given.
T1 construct: purchased Perkin-Elmer RBHM4M; host or cells: CHO cell membranes
T1 sequence (P08173 1-479): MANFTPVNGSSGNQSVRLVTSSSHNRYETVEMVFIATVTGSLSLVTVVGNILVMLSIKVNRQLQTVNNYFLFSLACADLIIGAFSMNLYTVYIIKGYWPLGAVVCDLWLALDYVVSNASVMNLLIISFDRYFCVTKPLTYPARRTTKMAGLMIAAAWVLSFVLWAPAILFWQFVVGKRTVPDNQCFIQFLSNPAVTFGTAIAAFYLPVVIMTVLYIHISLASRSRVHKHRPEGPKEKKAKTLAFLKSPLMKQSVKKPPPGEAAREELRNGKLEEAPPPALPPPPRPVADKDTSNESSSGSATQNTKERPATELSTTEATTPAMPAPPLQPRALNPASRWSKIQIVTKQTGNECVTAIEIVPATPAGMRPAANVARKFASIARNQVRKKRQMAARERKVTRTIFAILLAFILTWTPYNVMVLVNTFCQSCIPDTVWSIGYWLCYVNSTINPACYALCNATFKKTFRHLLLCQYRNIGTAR
Assay type: biochemical
Description: Membranes produced from Chinese hamster ovary cells (CHO) expressing the cloned human M4 receptor (human Muscarinic receptor subtype 4, gene bank access NM_000741), were obtained from Perkin-Elmer (RBHM4M). The membranes were thawed at 37° C., passed 3 times through a 23-gauge blunt-end needle, diluted in the GTPγS binding buffer (50 mM Hepes, 20 mM NaOH, 100 mM NaCl, 1 mM EDTA, 5 mM MgCl2, pH 7.4, 100 μM DTT). The EC50, IC50 and Emax of the compounds of the invention were evaluated from 10-point dose-response curves (three fold concentration range) done in 60 μl in 384-well non-specific binding surface plate (Corning). Ten microliters from the dose-response curves plate (5× concentration) were transferred to another 384 well plate containing the following: 10 μg of hM4 membranes, 500 μg of Flashblue beads (Perkin-Elmer) and GDP in a 25 μl volume. An additional 15 μl containing 3.3× (55000 dpm) of GTPγS (0.4 nM final) were added to the wells resulting in a total well volume of […]. Basal and maximal stimulated [^35S]GTPγS binding were determined in absence and presence of 30 μM of acetylcholine agonist. The membranes/beads mix were pre-incubated for 15 minutes at room temperature with 40 μM GDP prior to distribution In plates (20 μM final). The reversal of acetylcholine-induced stimulation (10 μM final) of [^35S]GTPγS binding was used to assay the antagonist properties (IC50) of the compounds. The plates were incubated for 60 minutes at room temperature with shaking, then centrifuged at 2000 rpm for 5 minutes. The radioactivity (cpm) were counted in a Trilux (Perkin-Elmer).
Values of EC50, IC50 and Emax were obtained using sigmoidal fits of a non-linear curve-fitting program (XLfit version 5.0.6 from ID Business Solutions Limited, Guildford, UK) of percent stimulated [^35S]GTRγS binding vs. log(molar ligand).
All EC50 and IC50 values are reported as arithmetic means±standard error of mean of ‘n’ independent experiments. […] The IC50 was the concentration of the compound of the invention at which 50% inhibition of acetylcholine [^35S]GTRγS binding stimulation has been observed.

| Compound | EC50 [µM] |
| --- | --- |
| CCOC(=O)N1CC[C@H](N2CCC(n3c(=O)[nH]c4ccc(F)cc43)CC2)C1 (single isomer, unassigned) [Example 35] | > 30 |
| CCOC(=O)N1CC[C@@H](N2CCC(n3c(=O)[nH]c4ccc(F)cc43)CC2)C1 (single isomer, unassigned) [Example 36] | > 30 |
| O=C(C1CCCC1)N1CC[C@H](N2CCC(n3c(=O)[nH]c4ccccc43)CC2)C1 [Example 19, 1-{1-[(3S)-1-(cyclopentylcarbonyl)pyrrolidin-3-yl]piperidin-4-yl}-1,3-dihydro-2H-benzimidazol-2-one] | 0.577 |
| O=C1CCCN1CCCC(=O)N1CC[C@H](N2CCC(n3c(=O)[nH]c4ccccc43)CC2)C1 [Example 22, 1-(1-{(3S)-1-[4-(2-oxopyrrolidin-1-yl)butanoyl]pyrrolidin-3-yl}piperidin-4-yl)-1,3-dihydro-2H-benzimidazol-2-one] | > 30 |
| CCOC(=O)N1CC[C@H](N2CCC(N3C(=O)Cc4ccccc43)CC2)C1 [Example 26, Ethyl (3S)-3-[4-(2-oxo-2,3-dihydro-1H-indol-1-yl)piperidin-1-yl]pyrrolidine-1-carboxylate] | > 30 |
| O=C1CCCN1CCC(=O)N1CC[C@H](N2CCC(N3C(=O)Cc4ccccc43)CC2)C1 [Example 29, 1-(1-{(3S)-1-[3-(2-oxopyrrolidin-1-yl)propanoyl]pyrrolidin-3-yl}piperidin-4-yl)-1,3-dihydro-2H-indol-2-one] | > 30 |
| CCOC(=O)N1CC[C@H](N2CCC(n3c(=O)[nH]c4ccc(C#N)cc43)CC2)C1 [Example 41, Ethyl (3S)-3-[4-(6-cyano-2-oxo-2,3-dihydro-1H-benzimidazol-1-yl)piperidin-1-yl]pyrrolidine-1-carboxylate] | > 30 |
| CCOC(=O)N1CC[C@H](N2CCC(n3c(=O)[nH]c4ccc(Cl)cc43)CC2)C1 [Example 42, Ethyl (3S)-3-[4-(6-chloro-2-oxo-2,3-dihydro-1H-benzimidazol-1-yl)piperidin-1-yl]pyrrolidine-1-carboxylate] | ≥ 10 |

Same assay, conditions: CHO membranes expressing cloned human M4, [35S]GTPγS binding; read-out: hM4 EC50

| Compound | EC50 [µM] |
| --- | --- |
| CCOC(=O)N1CCC(N2CCC(C3C(=O)Nc4ccccc43)CC2)C1 (centres unmarked) [Example 13, Ethyl 3-[4-(2-oxo-2,3-dihydro-1H-indol-3-yl)piperidin-1-yl]pyrrolidine-1-carboxylate] | > 30 |
| CCOC(=O)N1CC[C@@H](N2CCC(n3c(=O)[nH]c4ccccc43)CC2)C1 [Example 16, Ethyl (3R)-3-[4-(2-oxo-2,3-dihydro-1H-benzimidazol-1-yl)piperidin-1-yl]pyrrolidine-1-carboxylate] | > 30 |
| Cn1c(=O)n(C2CCN([C@H]3CCN(C(=O)CCN4CCCC4=O)C3)CC2)c2ccccc21 [Example 24, 1-methyl-3-(1-{(3S)-1-[3-(2-oxopyrrolidin-1-yl)propanoyl]pyrrolidin-3-yl}piperidin-4-yl)-1,3-dihydro-2H-benzimidazol-2-one] | > 30 |
